Our source for the IC50 values is patent US8623862B2, “Derivatives of N-[(1H-pyrazol-1-yl)aryl]-1H-indole or 1H-indazole-3-carboxamide, preparation thereof and applications thereof in therapeutics” (Sanofi, priority 2011, dated 2014).

Molecules are shown by their SMILES.

The first test concerns platelet aggregation. Description: Inhibition of platelet aggregation in vitro (rat blood).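 Note: aggregation induced by ADP added as 4 µL of a 250 µM solution.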 It is filed as cell-based. Conditions: 0.1 h; rat platelet-rich plasma, ADP-induced aggregation, area under the curve of absorbance for 6 minutes; read-out: Inhibition of platelet aggregation in vitro (rat blood). On the procedure:
The measurements of platelet aggregation are performed at 37° C. in glass tubes (Chrono-Log—Kordia aggregometer).
Inhibition of Platelet Aggregation In Vitro (Rat Blood)
The blood is taken from male rats of the Sprague-Dawley strain, weighing 250-300 g.
The platelet-rich plasma (PRP) is obtained by centrifugation of the blood at 300 g for 5 minutes, and the measurements of platelet aggregation are performed as described above.
The results are calculated using the area under the curve of absorbance measured for 6 minutes, and expressed as percentage inhibition.
Regarding `CCCC(=O)c1cnn(-c2ccc(NC(=O)c3cn(CC(=O)O)c4ccc(Cl)cc34)cc2)c1C` [Compound 3, (3-{[4-(4-butyryl-5-methyl-1H-pyrazol-1-yl)phenyl]carbamoyl}-5-chloro-1H-indol-1-yl)acetic acid], the IC50 was 2800 nM.

The test is the same for the next values; noted with them: rat blood, in vitro; read-out: Inhibition of platelet aggregation in vitro (rat blood).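 Note: aggregation induced by ADP added as 4 µL of a 250 µM solution.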
Turning to `CCCC(=O)c1cnn(-c2ccc(NC(=O)c3cn(CC(=O)N4CCN(C)CC4)c4ccc(OC)cc34)cc2)c1C` [Compound 136], the IC50 amounted to 400 nM.

Regarding `CCCC(=O)c1cnn(-c2ccc(NC(=O)c3cn(CC(=O)N4Cc5c[nH]nc5C4)c4ccc(Cl)cc34)cc2)c1C` [Compound 175], the IC50 was found to be 290 nM.

In the case of `CCCC(=O)c1cnn(-c2ccc(NC(=O)c3cn(CC(=O)N(C)CCN(C)C)c4cc(C)c(C)cc34)cc2)c1C` [Compound 110], the IC50 came out at 3990 nM.

On to `CCCC(=O)c1cnn(-c2ccc(NC(=O)c3cn(CC(=O)N4CC(O)CC4C(=O)NC4CCC4)c4ccc(Cl)cc34)cc2)c1C` (centres unmarked) [Compound 171], for which the IC50 worked out at 570 nM.

With `CCCC(=O)c1cnn(-c2ccc(NC(=O)c3cn(CC(=O)N4CCN(C)CC4)c4ccc(C#N)cc34)cc2)c1C` [Compound 160], the IC50 was 1380 nM.

`CCCC(=O)c1cnn(-c2ccc(NC(=O)c3cn(CC(=O)N4CC(O)C4)c4ccc(Cl)cc34)cc2)c1C` [Compound 176]: the IC50 turned out to be 390 nM.

For the molecule `CCCC(=O)c1cnn(-c2ccc(NC(=O)c3cn(CC(=O)N4CCC(OCCO)C4)c4ccc(Cl)cc34)cc2)c1C` (centres unmarked) [Compound 208], the IC50 is 370 nM.

As for `CCCC(=O)c1cnn(-c2ccc(NC(=O)c3cn(CC(=O)N4CCN(C)CC4)c4cc(Cl)c(Cl)cc34)cc2)c1C` [Compound 111], the IC50 was found to be 3700 nM.

`CCCC(=O)c1cnn(-c2ccc(NC(=O)c3cn(CC(=O)N4CCN(CCO)CC4)c4ccc(C)cc34)cc2)c1C` [Compound 116]: the IC50 is 260 nM.

As for `CCCC(=O)c1cnn(-c2ccc(NC(=O)c3cn(CC(=O)N4CCN(CC(=O)OCC)CC4)c4ccc(Cl)cc34)cc2)c1C` [Compound 155], the IC50 came to 260 nM.

On to `CCCC(=O)c1cnn(-c2ccc(NC(=O)c3cn(CC(=O)N4CCN(C)CC4)c4ccc(Cl)cc34)c(C(N)=O)c2)c1C` [Compound 220], for which the IC50 amounted to 220 nM.

With `CCCC(=O)c1cnn(-c2ccc(NC(=O)c3cn(CC(=O)N4CCN(CCC)CC4)c4ccc(Cl)cc34)cc2)c1C` [Compound 156], the IC50 is 300 nM.

On to `CCCC(=O)c1cnn(-c2ccc(NC(=O)c3cn(CC(=O)N4CCC(N(C)C)C4)c4ccc(C)cc34)cc2)c1C` (centres unmarked) [Compound 120], for which the IC50 was found to be 270 nM.

For `CCCC(=O)c1cnn(-c2ccc(NC(=O)c3cn(CC(=O)N4CCn5cnnc5C4)c4ccc(Cl)cc34)cc2)c1C` [Compound 182], the IC50 worked out at 270 nM.

Regarding `CCCC(=O)c1cnn(-c2ccc(NC(=O)c3cn(CC(=O)N(C)CCOC)c4ccc(Cl)cc34)cc2)c1C` [Compound 200], the IC50 was 480 nM.

For `CCCC(=O)c1cnn(-c2ccc(NC(=O)c3cn(CC(=O)N4CCC(N5CCOCC5)CC4)c4ccc(Cl)cc34)cc2)c1C` [Compound 149], the IC50 was found to be 410 nM.

For the molecule `CCCC(=O)c1cnn(-c2ccc(NC(=O)c3cn(CC(=O)N4CCN(C5CC5)CC4)c4ccc(C)cc34)cc2)c1C` [Compound 122], the IC50 turned out to be 450 nM.

Consider `CCCC(=O)c1cnn(-c2ccc(NC(=O)c3cn(CC(=O)N4CCN(CC5CC5)CC4)c4ccc(C)cc34)cc2)c1C` [Compound 121], for which the IC50 came out at 1060 nM.

Turning to `CCCC(=O)c1cnn(-c2ccc(NC(=O)c3cn(CC(=O)N4Cc5cccnc5C4)c4ccc(Cl)cc34)cc2)c1C` [Compound 187], the IC50 was found to be 610 nM.

For the molecule `CCCC(=O)c1cnn(-c2ccc(NC(=O)c3cn(CC(=O)N4CCOCC4)c4ccc(C)cc34)cc2)c1C` [Compound 128], the IC50 was found to be 290 nM.

As for `CCCC(=O)c1cnn(-c2ccc(NC(=O)c3cn(CC(=O)N4CCN(CC)CC4)c4ccc(C)cc34)cc2)c1C` [Compound 117], the IC50 was 500 nM.

For `CCCC(=O)c1cnn(-c2ccc(NC(=O)c3cn(CC(=O)N4CCN(CCO)CC4)c4ccc(Cl)cc34)cc2)c1C` [Compound 146], the IC50 turned out to be 100 nM.

On to `CCCC(=O)c1cnn(-c2ccc(NC(=O)c3cn(CC(=O)N4CCN(C(C)C)CC4)c4ccc(C)cc34)cc2)c1C` [Compound 124], for which the IC50 is 210 nM.

Staying with this test, now noted: rat platelet-rich plasma, ADP-induced aggregation, area under the curve of absorbance for 6 minutes; read-out: Inhibition of platelet aggregation in vitro (rat blood).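 Note: aggregation induced by ADP added as 4 µL of a 250 µM solution.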
Take `CCCC(=O)c1cnn(-c2ccc(NC(=O)c3cn(CC(=O)N4CCC(O)C4)c4ccc(Cl)cc34)nn2)c1C` (racemic) [Compound 49]: the IC50 was 220 nM.

Turning to `CCCC(=O)c1cnn(-c2ccc(NC(=O)c3cn(CC(=O)N4CC(O)C4)c4ccc(Cl)cc34)nn2)c1C` [Compound 66], the IC50 is 220 nM.

On to `CCCC(=O)c1cnn(-c2ccc(NC(=O)c3cn(CC(=O)N4CCN(CC(=O)OC)CC4)c4ccc(Cl)cc34)nn2)c1C` [Compound 87], for which the IC50 stood at 40 nM.

With `CCCC(=O)c1cnn(-c2ccc(NC(=O)c3cn(CC(=O)N4CCNCC4C)c4ccc(Cl)cc34)cc2)c1C` (centres unmarked) [Compound 258], the IC50 is 300 nM.

For `CCCC(=O)c1cnn(-c2ccc(NC(=O)c3cn(CC(=O)N4CC(C)NC(C)C4)c4ccc(C)cc34)cc2)c1C` (centres unmarked) [Compound 247], the IC50 turned out to be 260 nM.

For `CCCC(=O)c1cnn(-c2ccc(NC(=O)c3cn(CC(=O)N(C)C)c4ccc(Cl)cc34)nn2)c1C` [Compound 36], the IC50 came to 110 nM.

On to `CCCC(=O)c1cnn(-c2ccc(NC(=O)c3cn(CC(=O)N4CCNCC4CO)c4ccc(C)cc34)cc2)c1C` (centres unmarked) [Compound 254], for which the IC50 was determined as 190 nM.

Turning to `CCCC(=O)c1cnn(-c2ccc(NC(=O)c3cn(CC(=O)O)c4ccc(C(F)(F)F)cc34)cc2)c1C` [Compound 13], the IC50 worked out at 4600 nM.

Regarding `CCCC(=O)c1cnn(-c2ccc(NC(=O)c3cn(CC(=O)O)c4cc(F)c(Cl)cc34)cc2)c1C` [Compound 21], the IC50 worked out at 2800 nM.

As for `CCCC(=O)c1cnn(-c2ccc(NC(=O)c3cn(CC(=O)N4CCN(Cc5ccc(OC)c(F)c5)CC4)c4ccc(Cl)cc34)nn2)c1C` [Compound 85], the IC50 came out at 100 nM.

As to `CCCC(=O)c1cnn(-c2ccc(NC(=O)c3cn(CC(=O)N4CC5CCCN5CC4C)c4ccc(Cl)cc34)nn2)c1C` (centres unmarked) [Compound 88], the IC50 amounted to 90 nM.

For `CCCC(=O)c1cnn(-c2ccc(NC(=O)c3cn(CC(=O)N(C)C4CC4)c4ccc(Cl)cc34)nn2)c1C` [Compound 90], the IC50 was determined as 60 nM.

For the molecule `CCCC(=O)c1cnn(-c2ccc(NC(=O)c3cn(CC(=O)N4CCN(Cc5ccncc5)CC4)c4ccc(Cl)cc34)nn2)c1C` [Compound 102], the IC50 was found to be 30 nM.

Take `CCCC(=O)c1cnn(-c2ccc(NC(=O)c3cn(CC(=O)N4CCN(CCO)CC4)c4ccc(Cl)cc34)nn2)c1C` [Compound 95]: the IC50 came out at 50 nM.

Regarding `CCCC(=O)c1cnn(-c2ccc(NC(=O)c3cn(CC(=O)NCc4n[nH]c(C)n4)c4ccc(Cl)cc34)nn2)c1C` [Compound 74], the IC50 amounted to 120 nM.

Regarding `CCCC(=O)c1cnn(-c2ccc(NC(=O)c3cn(CC(=O)O)c4ccc(-c5ccccc5)cc34)cc2)c1C` [Compound 15], the IC50 was determined as 25000 nM.

As for `CCCC(=O)c1cnn(-c2ccc(NC(=O)c3cn(CC(=O)O)c4ccc(OC)cc34)cc2)c1C` [Compound 12], the IC50 turned out to be 17000 nM.

Consider `CCCC(=O)c1cnn(-c2ccc(NC(=O)c3cn(CC(=O)N4CC(C)NC(C)C4)c4ccc(Cl)cc34)nn2)c1C` (centres unmarked) [Compound 43], for which the IC50 worked out at 120 nM.

For `CCCC(=O)c1cnn(-c2ccc(NC(=O)c3cn(CC(=O)N4CCN(C5CCC5)CC4)c4ccc(Cl)cc34)nn2)c1C` [Compound 79], the IC50 came out at 80 nM.

Turning to `CCCC(=O)c1cnn(-c2ccc(NC(=O)c3cn(CC(=O)NC(C)c4nn[nH]n4)c4ccc(Cl)cc34)nn2)c1C` (centres unmarked) [Compound 78], the IC50 was found to be 280 nM.

In the case of `CCCC(=O)c1cnn(-c2ccc(NC(=O)c3cn(CC(=O)NCCO)c4ccc(Cl)cc34)nn2)c1C` [Compound 33], the IC50 amounted to 80 nM.

In the case of `CCCC(=O)c1cnn(-c2ccc(NC(=O)c3cn(CC(=O)N4CC5CCCCN5CC4C)c4ccc(Cl)cc34)nn2)c1C` (centres unmarked) [Compound 89], the IC50 stood at 170 nM.

Regarding `CCCC(=O)c1cnn(-c2ccc(NC(=O)c3cn(CC(=O)N4CC5CCNC5C4)c4ccc(C)cc34)cc2)c1C` (centres unmarked) [Compound 246], the IC50 was 850 nM.

As for `CCCC(=O)c1cnn(-c2ccc(NC(=O)c3cn(CC(=O)N4CCN(C(=O)N(C)C)CC4)c4ccc(Cl)cc34)nn2)c1C` [Compound 69], the IC50 came out at 100 nM.

As to `CCCC(=O)c1cnn(-c2ccc(NC(=O)c3cn(CC(=O)N4CCN(CCOCC)CC4)c4ccc(Cl)cc34)nn2)c1C` [Compound 93], the IC50 was 150 nM.

For `CCCC(=O)c1cnn(-c2ccc(NC(=O)c3cn(CC(=O)N4CCN(CC(=O)N5CCCC5)CC4)c4ccc(Cl)cc34)nn2)c1C` [Compound 46], the IC50 worked out at 40 nM.

Turning to `CCCC(=O)c1cnn(-c2ccc(NC(=O)c3cn(CC(=O)N4CCCC(N)C4)c4ccc(C)cc34)cc2)c1C` (centres unmarked) [Compound 244], the IC50 amounted to 960 nM.

As for `CCCC(=O)c1cnn(-c2ccc(NC(=O)c3cn(CC(=O)N4CCN(Cc5ccc(F)cc5)CC4)c4ccc(Cl)cc34)nn2)c1C` [Compound 92], the IC50 stood at 200 nM.

Regarding `CCCC(=O)c1cnn(-c2ccc(NC(=O)c3cn(CC(=O)N4CC(N5CCOCC5)C4)c4ccc(Cl)cc34)nn2)c1C` [Compound 104], the IC50 came to 100 nM.

Consider `CCCC(=O)c1cnn(-c2ccc(NC(=O)c3cn(CC(=O)NCCn4cccc4)c4ccc(Cl)cc34)nn2)c1C` [Compound 58], for which the IC50 was determined as 450 nM.

For `CCCC(=O)c1cnn(-c2ccc(NC(=O)c3cn(CC(=O)O)c4cc(Cl)c(Cl)cc34)cc2)c1C` [Compound 17], the IC50 was 7300 nM.

`CCCC(=O)c1cnn(-c2ccc(NC(=O)c3cn(CC(=O)N(C)CC4CCOC4)c4ccc(Cl)cc34)nn2)c1C` (centres unmarked) [Compound 91]: the IC50 came out at 120 nM.
